Assay results published in patent US8389523B2, “Substituted quinoxaline and an agrochemical composition thereof” (Kumiai Chemical Industry Co., Ltd., priority 2007, dated 2013).

Legend:
Type in all cases: in vivo
Set-up in all cases: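 grade 0 to 5 of growth suppression where 5 is 90% or more and 0 below 10%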
[1] = tested on: Echinochloa crus-galli (L.) P. Beauv. var. crus-galli; test: Herbicidal effects in upland field foliar treatment (Test Example 3); conditions: 1000 g active ingredient per hectare, 14th day after treatment, criteria of Table 138
Method in brief: (§1)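 Herbicidal activity is rated visually on a fixed scale 14 days after foliar application. Plants raised from seed in upland field soil for two weeks under glass receive a water dilution of a wettable powder at 1000 g a.i. per hectare in 1000 L/ha.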

[2] = tested on: Amaranthus viridis L.; test: as above; conditions: 1000 g active ingredient per hectare, 14th day after treatment, criteria of Table 138
Method in brief: as §1

[3] = tested on: Abutilon theophrasti medicus; test: as above; conditions: 1000 g active ingredient per hectare, 14th day after treatment, criteria of Table 138
Method in brief: as §1

[4] = tested on: Amaranthus viridis L.; test: Herbicidal effects in upland field soil treatment (Test Example 2); conditions: 1000 g active ingredient per hectare, 21st day after treatment, criteria of Table 138
Method in brief: (§2)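 Herbicidal effect was rated visually against set criteria on the 21st day after a pre-emergence soil-surface spray of diluted wettable powder delivering 1000 g active ingredient per hectare (1000 L/ha). Seeds had been sown and covered in upland field soil; plants grew in a greenhouse.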

[5] = tested on: Abutilon theophrasti medicus; test: as above; conditions: 1000 g active ingredient per hectare, 21st day after treatment, criteria of Table 138
Method in brief: as §2

[6] = tested on: Monochoria vaginalis (Burm. f.) Presl var. plantaginea (Roxb.) Solms-Laub.; test: Herbicidal effects in paddy field soil treatment (Test Example 1); conditions: paddy field soil treatment; 1000 g of the active ingredient per hectare; wettable powder added dropwise on water surface; 21st day after treatment
Method in brief: (§3)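 Scoring of herbicidal effect took place 21 days after treatment, using a rating scale, on plants grown in a greenhouse. The test compound, formulated as a wettable powder and diluted with water, had been applied dropwise to the flood water at 1000 g active ingredient per hectare, one day after sowing into puddled paddy soil held under 3 cm of water.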

[7] = tested on: Echinochloa oryzicola Vasing; test: as above; conditions: paddy field soil treatment; 1000 g of the active ingredient per hectare; wettable powder added dropwise on water surface; 21st day after treatment
Method in brief: as §3

[8] = tested on: Scirpus juncoides Roxb. var. ohwianus. T. Koyama; test: as above; conditions: paddy field soil treatment; 1000 g of the active ingredient per hectare; wettable powder added dropwise on water surface; 21st day after treatment
Method in brief: as §3

O=C1CCCC(O)=C1C(=O)c1nc2ccccc2n(-c2cccnc2)c1=O [I-185]
herbicidal effect (index) on Echinochloa crus-galli (L.) P. Beauv. var. crus-galli [1]: 5 | herbicidal effect (index) on Amaranthus viridis L. [2]: 5 | herbicidal effect (index) on Abutilon theophrasti medicus [3]: 5 | herbicidal effect (index) on Amaranthus viridis L. [4]: 5 | herbicidal effect (index) on Abutilon theophrasti medicus [5]: 5 | Herbicidal effects index, Monochoria vaginalis (Burm. f.) Presl var. plantaginea (Roxb.) Solms-Laub. [6]: 5 | Herbicidal effects index, Echinochloa oryzicola Vasing [7]: 5 | Herbicidal effects index, Scirpus juncoides Roxb. var. ohwianus. T. Koyama [8]: 5

COc1ccc(-n2c(=O)c(C(=O)C3=C(O)CCCC3=O)nc3ccccc32)cn1 [I-189]
herbicidal effect (index) on Echinochloa crus-galli (L.) P. Beauv. var. crus-galli [1]: 4 | herbicidal effect (index) on Amaranthus viridis L. [2]: 5 | herbicidal effect (index) on Abutilon theophrasti medicus [3]: 5 | herbicidal effect (index) on Amaranthus viridis L. [4]: 5 | herbicidal effect (index) on Abutilon theophrasti medicus [5]: 5 | Herbicidal effects index, Monochoria vaginalis (Burm. f.) Presl var. plantaginea (Roxb.) Solms-Laub. [6]: 5 | Herbicidal effects index, Echinochloa oryzicola Vasing [7]: 5 | Herbicidal effects index, Scirpus juncoides Roxb. var. ohwianus. T. Koyama [8]: 5

COc1cc(OC)nc(-n2c(=O)c(C(=O)C3=C(O)CCCC3=O)nc3ccccc32)n1 [I-197]
herbicidal effect (index) on Echinochloa crus-galli (L.) P. Beauv. var. crus-galli [1]: 5 | herbicidal effect (index) on Amaranthus viridis L. [2]: 5 | herbicidal effect (index) on Abutilon theophrasti medicus [3]: 5 | herbicidal effect (index) on Amaranthus viridis L. [4]: 5 | herbicidal effect (index) on Abutilon theophrasti medicus [5]: 5 | Herbicidal effects index, Monochoria vaginalis (Burm. f.) Presl var. plantaginea (Roxb.) Solms-Laub. [6]: 5 | Herbicidal effects index, Echinochloa oryzicola Vasing [7]: 5 | Herbicidal effects index, Scirpus juncoides Roxb. var. ohwianus. T. Koyama [8]: 5

O=C1CCCC(O)=C1C(=O)c1nc2ccccc2n(-c2cnccn2)c1=O [I-199]
herbicidal effect (index) on Echinochloa crus-galli (L.) P. Beauv. var. crus-galli [1]: 5 | herbicidal effect (index) on Amaranthus viridis L. [2]: 5 | herbicidal effect (index) on Abutilon theophrasti medicus [3]: 5 | herbicidal effect (index) on Amaranthus viridis L. [4]: 5 | herbicidal effect (index) on Abutilon theophrasti medicus [5]: 5 | Herbicidal effects index, Monochoria vaginalis (Burm. f.) Presl var. plantaginea (Roxb.) Solms-Laub. [6]: 5 | Herbicidal effects index, Echinochloa oryzicola Vasing [7]: 5 | Herbicidal effects index, Scirpus juncoides Roxb. var. ohwianus. T. Koyama [8]: 5

O=C1CCCC(O)=C1C(=O)c1nc2ccccc2n(-c2ccc3c(c2)CCO3)c1=O [I-201]
herbicidal effect (index) on Echinochloa crus-galli (L.) P. Beauv. var. crus-galli [1]: 5 | herbicidal effect (index) on Amaranthus viridis L. [2]: 5 | herbicidal effect (index) on Abutilon theophrasti medicus [3]: 4 | herbicidal effect (index) on Amaranthus viridis L. [4]: 5 | herbicidal effect (index) on Abutilon theophrasti medicus [5]: 4 | Herbicidal effects index, Monochoria vaginalis (Burm. f.) Presl var. plantaginea (Roxb.) Solms-Laub. [6]: 5 | Herbicidal effects index, Echinochloa oryzicola Vasing [7]: 5 | Herbicidal effects index, Scirpus juncoides Roxb. var. ohwianus. T. Koyama [8]: 5

O=C1CCCC(O)=C1C(=O)c1nc2ccccc2n(-c2ccc3c(c2)OCO3)c1=O [I-202, 1-(benzo[d][1,3]dioxol-5-yl)-3-(2-hydroxy-6-oxo-1-cyclohexenecarbonyl)-quinoxalin-2(1H)-one]
herbicidal effect (index) on Echinochloa crus-galli (L.) P. Beauv. var. crus-galli [1]: 4 | herbicidal effect (index) on Amaranthus viridis L. [2]: 5 | herbicidal effect (index) on Abutilon theophrasti medicus [3]: 5 | herbicidal effect (index) on Amaranthus viridis L. [4]: 5 | herbicidal effect (index) on Abutilon theophrasti medicus [5]: 4 | Herbicidal effects index, Monochoria vaginalis (Burm. f.) Presl var. plantaginea (Roxb.) Solms-Laub. [6]: 5 | Herbicidal effects index, Echinochloa oryzicola Vasing [7]: 5 | Herbicidal effects index, Scirpus juncoides Roxb. var. ohwianus. T. Koyama [8]: 5

O=C1CCCC(O)=C1C(=O)c1nc2ccccc2n(-c2ccc3c(c2)OC(F)(F)O3)c1=O [I-207]
herbicidal effect (index) on Echinochloa crus-galli (L.) P. Beauv. var. crus-galli [1]: 5 | herbicidal effect (index) on Amaranthus viridis L. [2]: 5 | herbicidal effect (index) on Abutilon theophrasti medicus [3]: 5 | herbicidal effect (index) on Amaranthus viridis L. [4]: 5 | herbicidal effect (index) on Abutilon theophrasti medicus [5]: 5 | Herbicidal effects index, Monochoria vaginalis (Burm. f.) Presl var. plantaginea (Roxb.) Solms-Laub. [6]: 5 | Herbicidal effects index, Echinochloa oryzicola Vasing [7]: 4 | Herbicidal effects index, Scirpus juncoides Roxb. var. ohwianus. T. Koyama [8]: 5

O=C1CCCC(O)=C1C(=O)c1nc2ccccc2n(CC2CCCO2)c1=O (stereo not drawn) [I-211]
herbicidal effect (index) on Echinochloa crus-galli (L.) P. Beauv. var. crus-galli [1]: 5 | herbicidal effect (index) on Amaranthus viridis L. [2]: 5 | herbicidal effect (index) on Abutilon theophrasti medicus [3]: 5 | herbicidal effect (index) on Amaranthus viridis L. [4]: 5 | herbicidal effect (index) on Abutilon theophrasti medicus [5]: 5 | Herbicidal effects index, Monochoria vaginalis (Burm. f.) Presl var. plantaginea (Roxb.) Solms-Laub. [6]: 5 | Herbicidal effects index, Echinochloa oryzicola Vasing [7]: 4 | Herbicidal effects index, Scirpus juncoides Roxb. var. ohwianus. T. Koyama [8]: 5

CC1=NOC(Cn2c(=O)c(C(=O)C3=C(O)CCCC3=O)nc3ccccc32)C1 (stereo not drawn) [I-212]
herbicidal effect (index) on Echinochloa crus-galli (L.) P. Beauv. var. crus-galli [1]: 5 | herbicidal effect (index) on Amaranthus viridis L. [2]: 5 | herbicidal effect (index) on Abutilon theophrasti medicus [3]: 4 | herbicidal effect (index) on Amaranthus viridis L. [4]: 5 | herbicidal effect (index) on Abutilon theophrasti medicus [5]: 5 | Herbicidal effects index, Monochoria vaginalis (Burm. f.) Presl var. plantaginea (Roxb.) Solms-Laub. [6]: 5 | Herbicidal effects index, Echinochloa oryzicola Vasing [7]: 5 | Herbicidal effects index, Scirpus juncoides Roxb. var. ohwianus. T. Koyama [8]: 5

Cc1cc(Cn2c(=O)c(C(=O)C3=C(O)CCCC3=O)nc3ccccc32)on1 [I-213]
herbicidal effect (index) on Echinochloa crus-galli (L.) P. Beauv. var. crus-galli [1]: 5 | herbicidal effect (index) on Amaranthus viridis L. [2]: 5 | herbicidal effect (index) on Abutilon theophrasti medicus [3]: 5 | herbicidal effect (index) on Amaranthus viridis L. [4]: 5 | herbicidal effect (index) on Abutilon theophrasti medicus [5]: 5 | Herbicidal effects index, Monochoria vaginalis (Burm. f.) Presl var. plantaginea (Roxb.) Solms-Laub. [6]: 5 | Herbicidal effects index, Echinochloa oryzicola Vasing [7]: 4 | Herbicidal effects index, Scirpus juncoides Roxb. var. ohwianus. T. Koyama [8]: 5

Cn1c(=O)c(C(=O)C2=C(O)CCCC2=O)nc2cc(F)ccc21 [I-220]
herbicidal effect (index) on Echinochloa crus-galli (L.) P. Beauv. var. crus-galli [1]: 5 | herbicidal effect (index) on Amaranthus viridis L. [2]: 5 | herbicidal effect (index) on Abutilon theophrasti medicus [3]: 5 | herbicidal effect (index) on Amaranthus viridis L. [4]: 5 | herbicidal effect (index) on Abutilon theophrasti medicus [5]: 5 | Herbicidal effects index, Monochoria vaginalis (Burm. f.) Presl var. plantaginea (Roxb.) Solms-Laub. [6]: 5 | Herbicidal effects index, Echinochloa oryzicola Vasing [7]: 5 | Herbicidal effects index, Scirpus juncoides Roxb. var. ohwianus. T. Koyama [8]: 5

Cn1c(=O)c(C(=O)C2=C(O)CCCC2=O)nc2ccc(F)cc21 [I-221]
herbicidal effect (index) on Echinochloa crus-galli (L.) P. Beauv. var. crus-galli [1]: 4 | herbicidal effect (index) on Amaranthus viridis L. [2]: 5 | herbicidal effect (index) on Abutilon theophrasti medicus [3]: 5 | herbicidal effect (index) on Amaranthus viridis L. [4]: 5 | herbicidal effect (index) on Abutilon theophrasti medicus [5]: 5 | Herbicidal effects index, Monochoria vaginalis (Burm. f.) Presl var. plantaginea (Roxb.) Solms-Laub. [6]: 5 | Herbicidal effects index, Echinochloa oryzicola Vasing [7]: 5 | Herbicidal effects index, Scirpus juncoides Roxb. var. ohwianus. T. Koyama [8]: 5

Cn1c(=O)c(C(=O)C2=C(O)CCCC2=O)nc2cc(Cl)ccc21 [I-225]
herbicidal effect (index) on Echinochloa crus-galli (L.) P. Beauv. var. crus-galli [1]: 4 | herbicidal effect (index) on Amaranthus viridis L. [2]: 5 | herbicidal effect (index) on Abutilon theophrasti medicus [3]: 5 | herbicidal effect (index) on Amaranthus viridis L. [4]: 5 | herbicidal effect (index) on Abutilon theophrasti medicus [5]: 5 | Herbicidal effects index, Monochoria vaginalis (Burm. f.) Presl var. plantaginea (Roxb.) Solms-Laub. [6]: 5 | Herbicidal effects index, Echinochloa oryzicola Vasing [7]: 5 | Herbicidal effects index, Scirpus juncoides Roxb. var. ohwianus. T. Koyama [8]: 4

Cn1c(=O)c(C(=O)C2=C(O)CCCC2=O)nc2ccc(Cl)cc21 [I-227]
herbicidal effect (index) on Echinochloa crus-galli (L.) P. Beauv. var. crus-galli [1]: 4 | herbicidal effect (index) on Amaranthus viridis L. [2]: 5 | herbicidal effect (index) on Abutilon theophrasti medicus [3]: 5 | herbicidal effect (index) on Amaranthus viridis L. [4]: 5 | herbicidal effect (index) on Abutilon theophrasti medicus [5]: 5 | Herbicidal effects index, Monochoria vaginalis (Burm. f.) Presl var. plantaginea (Roxb.) Solms-Laub. [6]: 5 | Herbicidal effects index, Echinochloa oryzicola Vasing [7]: 5 | Herbicidal effects index, Scirpus juncoides Roxb. var. ohwianus. T. Koyama [8]: 5

Cn1c(=O)c(C(=O)C2=C(O)CCCC2=O)nc2cccc(Cl)c21 [I-229]
herbicidal effect (index) on Echinochloa crus-galli (L.) P. Beauv. var. crus-galli [1]: 4 | herbicidal effect (index) on Amaranthus viridis L. [2]: 5 | herbicidal effect (index) on Abutilon theophrasti medicus [3]: 5 | herbicidal effect (index) on Amaranthus viridis L. [4]: 5 | herbicidal effect (index) on Abutilon theophrasti medicus [5]: 5 | Herbicidal effects index, Monochoria vaginalis (Burm. f.) Presl var. plantaginea (Roxb.) Solms-Laub. [6]: 5 | Herbicidal effects index, Echinochloa oryzicola Vasing [7]: 4 | Herbicidal effects index, Scirpus juncoides Roxb. var. ohwianus. T. Koyama [8]: 5

COCCn1c(=O)c(C(=O)C2=C(O)CCCC2=O)nc2cccc(Cl)c21 [I-230]
herbicidal effect (index) on Echinochloa crus-galli (L.) P. Beauv. var. crus-galli [1]: 5 | herbicidal effect (index) on Amaranthus viridis L. [2]: 5 | herbicidal effect (index) on Abutilon theophrasti medicus [3]: 5 | herbicidal effect (index) on Amaranthus viridis L. [4]: 5 | herbicidal effect (index) on Abutilon theophrasti medicus [5]: 4 | Herbicidal effects index, Monochoria vaginalis (Burm. f.) Presl var. plantaginea (Roxb.) Solms-Laub. [6]: 5 | Herbicidal effects index, Echinochloa oryzicola Vasing [7]: 5 | Herbicidal effects index, Scirpus juncoides Roxb. var. ohwianus. T. Koyama [8]: 5

O=C1CCCC(O)=C1C(=O)c1nc2ccccc2n(-c2cccc3ccccc23)c1=O [I-263]
herbicidal effect (index) on Echinochloa crus-galli (L.) P. Beauv. var. crus-galli [1]: 5 | herbicidal effect (index) on Amaranthus viridis L. [2]: 5 | herbicidal effect (index) on Abutilon theophrasti medicus [3]: 5 | herbicidal effect (index) on Amaranthus viridis L. [4]: 5 | herbicidal effect (index) on Abutilon theophrasti medicus [5]: 5 | Herbicidal effects index, Monochoria vaginalis (Burm. f.) Presl var. plantaginea (Roxb.) Solms-Laub. [6]: 5 | Herbicidal effects index, Echinochloa oryzicola Vasing [7]: 5 | Herbicidal effects index, Scirpus juncoides Roxb. var. ohwianus. T. Koyama [8]: 5

Cc1cc(-n2c(=O)c(C(=O)C3=C(O)CCCC3=O)nc3ccccc32)nn1C [I-266]
herbicidal effect (index) on Echinochloa crus-galli (L.) P. Beauv. var. crus-galli [1]: 5 | herbicidal effect (index) on Amaranthus viridis L. [2]: 5 | herbicidal effect (index) on Abutilon theophrasti medicus [3]: 5 | herbicidal effect (index) on Amaranthus viridis L. [4]: 5 | herbicidal effect (index) on Abutilon theophrasti medicus [5]: 5 | Herbicidal effects index, Monochoria vaginalis (Burm. f.) Presl var. plantaginea (Roxb.) Solms-Laub. [6]: 5 | Herbicidal effects index, Echinochloa oryzicola Vasing [7]: 5 | Herbicidal effects index, Scirpus juncoides Roxb. var. ohwianus. T. Koyama [8]: 5
